Experimental findings from patent US20080269161A1, “Compositions and Methods Relating to Mitochondrial Hyperpolarization in Neurological Disease” (priority 2005, published 2008) are described below.

Entries after “also recorded” stand apart in the source; their conditions may differ.

For assay [1], the system named is mitochondrial membrane potential of rat cortical neurons. Format: cell-based. As to conditions: neurotoxin alone. The procedure:
Curve fits are non-formulaic software interpolations of the data points.
Changes in mitochondrial function that could be associated with the increased vesicular activity were evaluated. Mitochondria generate the energy for synaptic transmission in the form of ATP, and as a byproduct of this oxidative phosphorylation, they are also one of the primary producers of intracellular ROS. Two key mitochondrial parameters were examined in response to Tat and PAF: 1) mitochondrial membrane potential (ΔΨm) [as assessed by mitochondrial uptake of the lipophilic cationic dyes tetramethylrhodamine ethyl or methyl ester (TMRE or TMRM respectively)], and 2) ATP production (as measured by luciferase assay). The electronegative mitochondrial membrane potential provides the driving force for calcium buffering and ATP production by the mitochondria, and as such, ΔΨm is frequently used as an indicator of mitochondrial health and energetic capacity. Moreover, fluctuations in ΔΨm can trigger mitochondrial release of pro-apoptotic factors, an event most frequently associated with a loss of ΔΨm.
Monitoring alterations in ΔΨm with TMRM: In the relevant methods described herein, changes in mitochondrial membrane potential (ΔΨm) in response to Tat or PAF treatment is assessed by TMRM, which must equilibrate across the plasma membrane before entering the mitochondria; and in whole cell applications dye concentration in the mitochondria is dependent on both plasma membrane potential (ΔΨp) and AΨm. At sufficiently low dye concentrations (TMRM =1 nM, i.e. high cell/dye ratio) and normal membrane potentials, ≧95% of the dye is in the mitochondria, and ≦1% in the media, which results in an approximately 100× sensitivity of the dye to ΔΨm over ΔΨp, given equivalent changes in plasma or mitochondrial membrane potential [Rottenberg, H. and S. Wu, Biochim Biophys Acta, 1998. 1404(3): p. 393-40].
For these methods, primary rodent neurons are treated with reagent under normal culture conditions for the indicated time period, followed by removal of the media, 1×2 minute wash in pre-warmed 37° C. HBSS plus 10 mM glucose and 10 mM HEPES (HBSS+), then incubation in HBSS+ with 1 nM TMRE/M. Following equilibration of the dye for 20 minutes to ensure distribution across the mitochondrial membrane, the cells are imaged while remaining in the 1 nM TMRE/M solution, as is necessary for a continued dye equilibrium state. Random field images are taken using an Olympus IX-70 microscope and 40× objective (fluorescent excitation: 545; emission: 610) and Apogee KX32ME CCD camera, and the mean relative fluorescent unit (RFU) value of the neuronal soma and processes (excluding mitochondria deficient regions) is quantified using Scanalytics IPLab software.

A further assay deals with hippocampal neurons. The assay is described as follows: Dendrite beading and spine loss in hippocampal neurons in vitro. As to conditions: cPAF 130 nM, 60 hours. Type of assay: cell-based, rat. An excerpt: (A) cPAF causes dendrite beading and loss of dendritic spines. (A′) Low-magnification images show minimal changes in dendrite morphology and total spine number in control cultures (left). In cPAF-treated cultures (right), dendrite beading (red arrows) is accompanied by spine loss and sprouting of filopodia (green arrowheads) but gross aspects of dendrite structure are preserved. (B) No cells developed dendritic swellings in control cultures, while 55±3% of cPAF-exposed cells beaded. (C) 43±5% of dendritic spines were lost during cPAF exposure, while total spine number was maintained in control cultures.
An additional pathologic consequence of exposure to HIV-1 neurotoxins is an increase in oxidized cellular phospholipids that can bind to and activate the PAF-R [Marathe, G. K., et al., Vascul Pharmacol, 2002. 38(4): p. 193-200]. Both energetic stress and PAF-R signaling have the potential to impair post-synaptic neurotransmission. Thus, a morphologic correlate of dendrite damage in HAD was identified, which is activity-induced dendritic swelling or “beading” in the presence of the HIV neurotoxin cPAF. […]
(3) Primary rat hippocampal neurons (HN). […] Dissociated cells are counted by trypan blue viability assay and plated in cell culture plates at 0.5-0.6×10^5 cells/cm^2, on poly-D-lysine-coated cell culture plastic or sterile glass coverslips. […]

As for `CCCCCCCCCCCCCCCCOC[C@H](COP(=O)([O-])OCC[N+](C)(C)C)OC(=O)NC` [PAF, carbamyl-platelet-activating factor], the “effect on ΔΨm” value in assay [1] is on record as “dose dependent increases; also recorded: dose-dependent rise”. Also, in the assay on hippocampal neurons, the “cells with dendrite beading” value is 55±3% and the dendritic spines lost is reported as 43±5%.
